Test results reported in patent publication US10485772B2, “Compositions for modulating cancer stem cells and uses therefor” (University of Canberra, priority 2014, dated 2019).
“Also recorded” adds a separate entry of the source.

Assays:
Format in all cases: cell-based, human
[1] = tested on: CD44^high/CD24^low CSC-like subpopulation of PMA-stimulated MCF-7 cells (MCF-IM model); test: FACS analysis of CD44high/CD24low CSC-like subpopulation in MCF-IM model; settings: for CD44 high CD24 low-CSC-like subpopulation (CSC formation) by FACS: NCD38 5 μM for 17 hr prior to PMA stimulation for 60 hours
Procedure: (§1) Cells from each well/flask were harvested by means of trypsin treatment followed by two washes with PBS. Washed cells then re-suspended in an antibody cocktail consisting anti-CD44-APC, anti-CD24-PE antibodies (details in Table 5) and Hoechst 33258 dye (final dilution of 1:1000) (Invitrogen, Carlsbad, Calif.) in 1% FCS-PBS solution. Cells re-suspended in antibody cocktail were incubated for 20 minutes at 4° C. Cells were next washed twice with PBS and re-suspended in 1% FCS-PBS solution (volume based on cell number) and kept on ice until analyzed by FACS. Forward scatter (FSC) and side scatter parameters were selected with FITC fluorochrome excited by 488 nm argonion laser, PE fluorochrome excited by 488 nm and Hoechst fluorochrome excited by 350 nm helium-cadmium UV laser.
(§2) Flow Cytometry data was produced using either BD FACS LSR Flow Cytometer (Becton Dickinson Biosciences) or BD FACS Aria™ II Flow Cytometer (Becton Dickinson Biosciences) and analyzed using the data acquisition software CellQuest Pro (Becton Dickinson Biosciences) and FlowJo (Tree Star Inc., Ashland, Oreg.) software at the MCRF facility, JCSMR, ANU, Canberra, Australia. Single colour controls were used to set compensation parameters. Isotype controls were used for all corresponding primary antibodies in each experiment.
The FACS gating strategy used in this thesis is adopted and modified from the pioneer breast cancer stem cell publications (Al-Hajj et al., 2003) which sorted cells based on the CD44^high and CD24^low expression. […] To confirm that anti-CD44-APC and anti-CD24-PE antibodies were specific, isotype control antibodies were used. The isotype (negative controls) used for anti-CD24-PE was PE Mouse-Anti-human IgG2aK and for anti-CD44-APC was APC-Mouse-Anti-human IgG2bK. First, all the cells were stained with Hoechst 33258 to monitor cell viability. In addition cells were stained with varying concentrations of either APC or PE isotypes controls.
(§3) The adherent human mammary adenocarcinoma MCF-7 and MDA-MB-231 cells were cultured in low glucose DMEM (Gibco) and both supplemented with 10% FCS, 2 mM L-glutamine and 0.1% PSN antibiotics. Cells were stimulated with 0.65 ng/ml of phorbol 12-myristate 13-acetate (PMA) (Sigma-Aldrich) or 20 ng/ml of TGF-β (R&D systems) for the times indicated. For Bisindolylmaleimide-I (Calbiochem) or PKC-θ peptide inhibitor (Calbiochem) studies, cells were pre-treated with 1 μM or 30 μM of inhibitor respectively for 1 h prior to stimulation in MCF-7 cells. In case of MDA-MB-231, cells were treated with 4 μM or 30 μM Bisindolylmaleimide-I or PKC-θ peptide inhibitor respectively.
(§4) To separate CSC from non-CSC (NCSC), florescence activated cell sorting (FACS) was performed on single-cell suspensions that were stained with anti-CD44-APC (559942, BD Biosciences) and anti-CD24-PE antibodies (555428, BD Biosciences) along with Hoechst 33258 to monitor cell viability. As used throughout this work, CSC are defined by minority CD44^high/CD24^low, whereas NCSC are defined by rest of the cell populations.
The adherent human mammary adenocarcinoma cell lines MCF-7 were cultured in low glucose DMEM (Gibco) and supplemented with 10% FCS, 2 mM L-glutamine, and 0.1% PSN antibiotics. Cells were stimulated with 0.65 ng/ml of phorbol 12-myristate 13-acetate (PMA) (Sigma-Aldrich) for 60 hours. FACS was performed on single-cell suspensions stained with anti-CD44-APC (559942, BD Biosciences) and anti-CD24-PE antibodies (555428, BD Biosciences), along with Hoechst 33258 (561908, BD Biosciences) to monitor cell viability as previously detailed (Zafar et al., Chromatinized PKC-theta directly regulates inducible genes in epithelial to mesenchymal transition and breast cancer stem cells. Molecular and Cellular Biology, 2014, 34:16 2961-2980). […]

[2] = tested on: MCF-7 cells (mammospheres); test: Mammosphere assay in MCF-IM model; settings: NCD38 5 μM for 17 hr prior to PMA for 6 days, mammospheres larger than 60 μm counted
Procedure: The following mammosphere culture media components were purchased from StemCell Technologies Inc., BC, Canada: Mammocult Basal medium (Human) (catalogue number-05621), Mammocult Proliferation Supplements (Human) (catalogue number-05622), heparin (catalogue number-07904) and hydrocortisone (catalogue number-[…]). Hydrocortisone powder was freshly dissolved into mammocult basal medium to get 10^−4M solution on the day of experiment. 50 mL of
Mammocult complete media was then prepared by addition of 45 mL Mammocult basal medium, 5 mL mammocult proliferation supplements, 100 μL of the 0.2% heparin stock, 500 μL of 10^−4M stock of hydrocortisone and 50 μL of the PNS. Mammocult complete media was either used on same day or stored for not more than 7 days at 4° C.
MCF-7 cells were grown in a 175 cm^2 cell culture flask and harvested using a cell scraper (Zellschaber, Switzerland) or FACS sorted as specified below. Importantly trypsin treatment was never used for harvesting cells as it interferes with the mammosphere assay. Harvested cells were then re-suspended in 1 mL mammocult complete media and centrifuged at 500×g for 3 minutes at 20° C. The cell pellet was then re-suspended in 1 mL mammocult complete media before counting the cells on the Vi-CELL counter. Cell dilutions were then prepared to stain 40,000 cells/2 mL and 2 mL of cells were seeded in the 6 well-ultra low adherent, flat bottom plates (Costar, Corning Inc, Corning, N.Y., USA). Cells were either stimulated or not treated according to the experimental protocol and incubated at 37° C., under 5% CO2 for 7 days in a Hepa-Filtered Infrared (IR) Incubator (Forma Scientific Inc., Materietta, Ohio). Mammospheres larger than 60 μm were counted per well on day 7 and pictures were taken with an Olympus microscope. All the mammosphere assays were performed in duplicate wells and the entire procedure was repeated at least twice.
Mammosphere culture media components were purchased from StemCell Technologies and mammosphere assays were performed as recommended by the manufacturer's guidelines. Briefly, 40,000 cells/2 ml cell dilutions were then prepared and 2 ml of cells were seeded in the 6 well-ultralow adherent, flat bottom plates (Costar). Mammospheres larger than 60 μm were counted per well on day 7 and pictures were taken.

[3] = tested on: MDA-MB 231 cells; test: FACS analysis of CD44high/CD24low CSC-like subpopulation in Basal/metastatic model; settings: NCD38 5 μM
Procedure: as §1, §2, §3, §4

[4] = tested on: MDA-MB 231 cells; test: Phase contrast microscopy of EMT/MET in Basal/metastatic model; settings: NCD38 5 μM
Procedure: (§5) Phase contrast microscopy was utilized for EMT and wound healing assays under 10× or 20× magnification of Olympus Fluorescence 1X71 microscope. Images were captured and analyzed as described above except that wound healing assay pictures were also analyzed by Image J software (Free software in Public domain developed by NIH).
as §3
(§6) phase contrast microscopy was performed where cells were viewed at ×4 magnification (wound healing assay) or ×10 magnification (EMT) using an Olympus fluorescence IX71 microscope (Olympus) and images were captured using DPController software (2002 Olympus Optical Co. LTD) and analyzed using Photoshop CS3 (Adobe Systems Inc.). Scans were taken with a 10 μm scale bar.

[5] = tested on: MCF-7 cells; test: EMT assay by phase contrast microscopy in MCF-IM model; settings: MCF-7 cells; PMA 20 ng/mL for 60 hr, compared with TNF-α, EGF, IL-6, TGF-β
Procedure: EMT assays were performed in 24-well plates (Costar, Corning Inc., Corning, N.Y., USA). For this assay, usually MCF-7 cells were seeded at 4×10^4/well/500 μL media one day before the experiment unless otherwise specified. Cells were stimulated with various EMT stimuli prepared in warm media the following day and monitored for EMT changes under the microscope specified below. The percentage of EMT was generally calculated based on phenotype counting 100 cells per field under the microscope. All the potential EMT stimuli used herein are described in Table 6 and they were prepared and stored as per supplier specification.
as §5
as §3, with “Cells were stimulated with 0.65 ng/ml of phorbol 12-myristate 13-acetate (PMA) (Sigma-Aldrich) or 20 ng/ml of TGF-β (R&D systems) for the times indicated.” left out
as §6

In the case of `CC(C)[C@@](C)(O)[C@@H]1CN(c2nc(-c3n[nH]c4ncccc34)c(F)cc2Cl)CCN1` [Compound C27], the inhibition at 0.1 µM ([1]; Homo sapiens, MCF7, MCF-IM model, C27 alone at 100 nM) was ~30% and the inhibition at 0.5 µM ([1]; Homo sapiens, MCF7, MCF-IM model, C27 alone at 500 nM) was ~90%.

`O=C(N[C@@H](CCNC1CC1c1ccccc1)C(=O)NCc1cccc(Cl)c1)c1ccc(-c2ccccc2)cc1` (some centres unmarked) [NCD-38] was tested, and the inhibition at 2.5 µM ([1]; Homo sapiens, MCF7, MCF-IM model, NCD-38 alone at 2.5 μM) was ~50%, the inhibition at 5 µM ([1]; Homo sapiens, MCF7, MCF-IM model, NCD-38 alone at 5 μM) was ~60% and the “CD44 high CD24 low-CSC-like subpopulation (CSC formation) by FACS” value ([1]; MCF-IM model) was “inhibition CSC formation”. The “CD44 high CD24 low-CSC-like subpopulation (CSC formation) by FACS” value ([1]; MCF-IM model, listed as NCD38) was “inhibits CD44 high CD24 low-CSC-like subpopulation”, the mammosphere formation [2] was “inhibition CSC formation” and the mammosphere formation ([2]; listed as NCD38) was “reduce mammosphere formation”. For the same compound, the “CD44 high CD24 low-CSC-like subpopulation (CSC formation) by FACS” value [3] was “decrease of CSC formation”, the “CD44 high CD24 low-CSC-like subpopulation (CSC formation) by FACS” value ([3]; listed as NCD38) was “inhibits CD44 high CD24 low-CSC-like subpopulation” and the “EMT / conversion of mesenchymal cells to epithelial cells (MET), phase contrast morphology” value [4] was “conversion of mesenchymal cells in to epithelial cells”. The “EMT / conversion of mesenchymal cells to epithelial cells (MET), phase contrast morphology” value ([4]; listed as NCD38) was “inhibit EMT”.

For `CCCCCCCCCCCCCC(=O)O[C@@H]1[C@@H](C)[C@@]2(O)[C@@H](C=C(CO)C[C@]3(O)C(=O)C(C)=C[C@@H]23)[C@@H]2C(C)(C)[C@]12OC(C)=O` [PMA, Phorbol 12-Myristate 13-Acetate], the “generation of CD44high/CD24low CSC-like cells by FACS” value ([1]; MCF-7 cells stimulated with PMA 0.65 ng/mL for 60 hr) was “generation of CD44^high/CD24^low-CSC like cells” and the “EMT (percentage of the cells undergoing EMT, morphological changes)” value [5] was “results in maximal EMT; also recorded: caused highest EMT changes”.
